Experimental data: US20250228820A1, “METHODS FOR PREVENTING OR SLOWING THE PROGRESSION OF COGNITIVE DECLINE OR IMPAIRMENT IN SUBJECTS DISPLAYING NORMAL COGNITIVE PERFORMANCE” (AGENEBIO, INC., priority 2022, published 2025)
Several values for one entry are separate records, joined by “and”; a condition that tells them apart may be missing. Equal entries are not always repeated.

How the values were obtained:
[1] = Levetiracetam level in blood after treatment in the LEV-HFC trial; type: in vivo, human; conditions: after two-week treatment with levetiracetam 220 mg extended release daily
Experimental: (§1) A phase II, randomized, double-blind, placebo-controlled crossover clinical trial of 26 CN subjects (ranging in age from 55 to 75 years) to assess the potential effect of levetiracetam on hippocampal functional connectivity (a risk marker for cognitive decline and cognitive impairment and progression to AD) was conducted. 35 patients were recruited and assessed for eligibility and the 26 eligible subjects were separated into Group A or Group B treatment groups. Group A subjects received an oral placebo tablet daily for two weeks followed by a four-week washout period; then, the subjects received an oral levetiracetam tablet daily for two weeks (i.e., two-week placebo treatment, four-week washout period, and two-week levetiracetam treatment). Group B subjects received treatment using the reverse sequence (i.e., two-week levetiracetam treatment, four-week washout period, and two-week placebo treatment). The tablet was characterized by 220 mg levetiracetam in extended release form, i.e. Tablet D (Table 2) above.
A total of 25 participants (15 women with a mean [SD] age of 65.9 [3.8] years and 10 men with a mean [SD] age of 66.7 [5.5] years) were enrolled, randomized (12 participants to group A and 13 participants to group B), and completed the study. […]

[2] = cited from earlier work
[3] = tested on: hippocampal functional connectivity; experiment: Phase II placebo-controlled crossover trial: hippocampal functional connectivity by resting-state fMRI in cognitively normal subjects; type: in vivo, human
Experimental: as §1
For each scanning session, imaging was carried out on a 3T GE MR750 whole-body scanner (GE Healthcare, Waukesha WI) with a body transmit and a 32-channel head receive coil (Nova Medical, Wilmington MA). Imaging acquisition included T1- and T2-weighted high resolution, anatomical images (TR=2521.27 ms, TE=3.596 ms, Voxel resolution: 0.5×0.5×0.8 mm3, FOV: 25.6 cm, Flip angle: 8°). […]
Total Functional connectivity indices (TFCI) were obtained based on the traditional region of interest (ROI)-based method (Chen et al, 2011) in which individual cerebrums were automatically parcellated into 90 regions, per the Automated Anatomical Labeling (AAL) toolbox (3), and the FCI was calculated as the summation of Pearson cross-correlation coefficients between the seed region and all other regions in the cerebrum. […] Second, functional connectivity between each ROI and the other brain regions was calculated using the Pearson cross-correlation analysis. […]

SMILES: CC[C@@H](C(N)=O)N1CCCC1=O [Levetiracetam, (2S)-2-(2-oxopyrrolidin-1-yl) butanamide]
- LEV [μg] in blood, AVG ([1]; average of 25 subjects): 4.3 µg
- LEV [μg] in blood ([1]; individual subjects, listed as LEV): 3 μg and 4.5 μg and 4.8 μg and 6.1 μg and 2.9 μg and 4.1 μg (2×) and 5.1 μg and 4.4 μg (2×) and 6.3 μg and 4.9 μg and 4.2 μg and 3.1 μg and 2.8 μg and 3.8 μg (2×) and 5.8 μg and 5 μg and 3.2 μg and 3.4 μg and 4 μg and 4.7 μg and 2 μg and 8.2 μg
- Plasma half-life in elderly ([2]; expected in elderly due to decreased renal function): 9 to 10 h
- Time of peak plasma concentrations ([2]; following oral administration): about 1 hour
- Plasma half-life ([2]; in vivo): approximately 7±1 hour
- Time to steady state ([2]; multiple twice-daily dosing): 2 days
- Absorption after oral administration ([2]; oral): rapidly and almost completely absorbed
- Effect of food on bioavailability ([2]; oral): not affected by food
- Functional connectivity of the hippocampus network, levetiracetam compared with placebo ([3]; 220 mg extended release tablet (Tablet D) daily for two weeks, 25 CN subjects, paired t-test, t=−2.8044, p<0.0098, FIG. 6): significantly decreased
- Period I FC (hippocampal functional connectivity) ([3]; individual subjects, first two-week period, levetiracetam 220 mg extended release daily (numbers without *)): 0.209 and 0.602 and 0.148 (2×) and 0.241 and 0.138 and 0.099 and 0.136 and 0.504 and 0.253 and 0.367 and 0.173 and 0.303
- Period II FC (hippocampal functional connectivity) ([3]; individual subjects, second two-week period after four-week washout, levetiracetam 220 mg extended release daily (numbers without *)): 0.264 and 0.238 and 0.366 and 0.013 and 0.352 and 0.31 and 0.048 and 0.177 (2×) and 0.17 and 0.106 and 0.28
